# According to patent publication US20260193238A1, “PHARMACEUTICAL COMPOUNDS AS PARP7 AND/OR PARP1 INHIBITORS” (Duke Street Bio Limited, priority 2022, published 2026):
# Target: PARP1 (Homo sapiens, UniProt P09874)
# Assay: PARP1 biochemical DELFIA assay (auto-PARylation)
# Details: Table 1
# Sequence of PARP1 (P09874 whole entry): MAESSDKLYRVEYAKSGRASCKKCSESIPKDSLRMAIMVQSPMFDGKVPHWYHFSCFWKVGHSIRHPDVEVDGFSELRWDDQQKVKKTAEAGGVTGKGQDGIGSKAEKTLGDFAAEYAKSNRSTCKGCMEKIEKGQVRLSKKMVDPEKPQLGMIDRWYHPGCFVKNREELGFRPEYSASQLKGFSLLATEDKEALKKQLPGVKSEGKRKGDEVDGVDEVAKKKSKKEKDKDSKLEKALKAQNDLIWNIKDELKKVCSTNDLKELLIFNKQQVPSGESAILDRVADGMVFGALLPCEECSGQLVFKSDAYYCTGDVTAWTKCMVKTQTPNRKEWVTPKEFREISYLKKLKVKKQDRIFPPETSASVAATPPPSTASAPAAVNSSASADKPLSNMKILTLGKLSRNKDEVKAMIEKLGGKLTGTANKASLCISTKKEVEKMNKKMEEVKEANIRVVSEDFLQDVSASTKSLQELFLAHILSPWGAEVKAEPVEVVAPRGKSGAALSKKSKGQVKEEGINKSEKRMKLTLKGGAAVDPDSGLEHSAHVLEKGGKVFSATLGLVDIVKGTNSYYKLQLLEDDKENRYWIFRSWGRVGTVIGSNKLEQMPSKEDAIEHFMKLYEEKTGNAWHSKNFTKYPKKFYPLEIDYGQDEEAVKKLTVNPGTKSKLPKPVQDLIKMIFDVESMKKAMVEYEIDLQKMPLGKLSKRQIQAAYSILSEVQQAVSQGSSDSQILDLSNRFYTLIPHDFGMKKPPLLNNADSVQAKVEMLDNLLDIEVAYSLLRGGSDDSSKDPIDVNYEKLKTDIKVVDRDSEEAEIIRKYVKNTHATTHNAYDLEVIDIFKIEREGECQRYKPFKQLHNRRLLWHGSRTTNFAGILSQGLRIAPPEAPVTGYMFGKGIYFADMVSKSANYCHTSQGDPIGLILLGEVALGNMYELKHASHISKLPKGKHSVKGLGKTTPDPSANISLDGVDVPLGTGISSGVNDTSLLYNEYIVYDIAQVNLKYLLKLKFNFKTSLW
row,Compound,IC50 [nM]
1,"O=C(CCN1CCCC(c2cc(C(F)(F)F)c(=O)[nH]n2)C1)N1CCN(c2ncc(C(F)(F)F)cn2)CC1 (single isomer, unassigned) [Compound 1a, 6-(1-(3-oxo-3-(4-(5-(trifluoromethyl)pyrimidin-2-yl)piperazin-1-yl)propyl)piperidin-3-yl)-4-(trifluoromethyl)pyridazin-3(2H)-one]",100 to 1000
2,O=C(CCN1CCCC(c2cc(C(F)(F)F)c(=O)[nH]n2)C1)N1CCN(c2ncc(Cl)cn2)CC1 (racemic) [Compound 20rac],100 to 1000
3,"O=C(CCN1CCCC(c2cc(C(F)(F)F)c(=O)[nH]n2)C1)N1CCN(c2ccc(F)cn2)CC1 (single isomer, unassigned) [Compound 8a]",100 to 1000
4,"O=C(CCN1CCCC(c2cc(C(F)(F)F)c(=O)[nH]n2)C1)N1CCN(c2ncc(C(F)(F)F)s2)CC1 (single isomer, unassigned) [Compound 27a]",10 to 100
5,O=C(CN1CCC(c2cc(C(F)(F)F)c(=O)[nH]n2)C1)N1CCN(c2ncc(C(F)(F)F)cn2)CC1 (racemic) [Compound 19rac],100 to 1000
6,"O=C(CCN1CCCC(c2cc(C(F)(F)F)c(=O)[nH]n2)C1)N1CCN(c2ncc(C(F)(F)F)s2)CC1 (single isomer, unassigned) [Compound 27b]",10 to 100

# Now from value to compound:
row,IC50 [nM],Compound
1,1000 to 10000,"O=C(CN1CCCC1c1cc(C(F)(F)F)c(=O)[nH]n1)N1CCN(c2ncc(C(F)(F)F)cn2)CC1 (single isomer, unassigned) [Compound 24a, 6-(1-(2-oxo-2-(4-(5-(trifluoromethyl)pyrimidin-2-yl)piperazin-1-yl)ethyl)pyrrolidin-2-yl)-4-(trifluoromethyl)pyridazin-3(2H)-one]"
2,100 to 1000,"O=C(CCN1CCCC(c2cc(C(F)(F)F)c(=O)[nH]n2)C1)N1CCN(c2ccc(F)cn2)CC1 (single isomer, unassigned) [Compound 8b]"
3,10 to 100,"O=C(CCN1CCCC(c2c[nH]c(=O)c(C(F)(F)F)c2)C1)N1CCN(c2ncc(C(F)(F)F)cn2)CC1 (single isomer, unassigned) [Compound 25a]"
4,100 to 1000,"CNC(=O)c1ccc(N2CCN(C(=O)CCN3CCCC(c4cc(C(F)(F)F)c(=O)[nH]n4)C3)CC2)nc1 (single isomer, unassigned) [Compound 28b]"

# Same assay, conditions: Table 1A
row,Compound,IC50 [nM]
1,"O=C(CN1CCCC1c1cc(C(F)(F)F)c(=O)[nH]n1)N1CCN(c2nc3ccc(F)cn3n2)CC1 (single isomer, unassigned) [Compound 128b]",1000 to 10000
2,"O=C(CN1CCCC1c1cc(C(F)(F)F)c(=O)[nH]n1)N1CC2(CCN(c3ncc(C(F)(F)F)cn3)CC2)C1 (single isomer, unassigned) [Compound 110b]",1000 to 10000
3,"Cn1c(N2CCN(C(=O)CN3CCCC3c3cc(C(F)(F)F)c(=O)[nH]n3)CC2)nc2ccccc21 (single isomer, unassigned) [Compound 97a]",100 to 1000
4,"O=C(CN1CCCC1c1cc(C(F)(F)F)c(=O)[nH]n1)N1CCN(c2cnc(C(F)(F)F)cn2)CC1 (single isomer, unassigned) [Compound 45a]",10 to 100
5,"N#Cc1cc(C2CCCN2CC(=O)N2CCN(c3nc4cc(Cl)ccc4o3)CC2)n[nH]c1=O (single isomer, unassigned) [Compound 121a]",100 to 1000
6,O=C(CCN1CC2(c3cc(C(F)(F)F)c(=O)[nH]n3)CC1C2)N1CCN(c2ncc(C(F)(F)F)cn2)CC1 [Compound 103],100 to 1000
7,"O=C(CN1CCCC1c1cc(C(F)(F)F)c(=O)[nH]n1)N1CCN(c2ncc(OC(F)F)cn2)CC1 (single isomer, unassigned) [Compound 118a]",≤ 10
8,"O=C(CN1CCCC1c1cc(C(F)(F)F)c(=O)[nH]n1)N1CCN(c2nc3cc(F)ccc3o2)CC1 (single isomer, unassigned) [Compound 150b]",1000 to 10000
9,"CNC(=O)c1ccc(N2CCN(C(=O)CCN3CCC(c4n[nH]c(=O)c5ccccc45)CC3)CC2)cn1 [Compound 48, N-methyl-5-(4-(3-(4-(4-oxo-3,4-dihydrophthalazin-1-yl)piperidin-1-yl)propanoyl)piperazin-1-yl)picolinamide]",≤ 10

# Results, then the compound that gave them:
row,IC50 [nM],Compound
1,10 to 100,"N#Cc1ccc2oc(N3CCN(C(=O)CN4CCCC4c4cc(C(F)(F)F)c(=O)[nH]n4)CC3)nc2c1 (single isomer, unassigned) [Compound 100a]"
2,≤ 10,"O=C(CN1CCCC1c1cc(C(F)(F)F)c(=O)[nH]n1)N1CCN(c2nc3cc(Cl)ccc3o2)CC1 (single isomer, unassigned) [Compound 99a]"
3,10 to 100,"O=C(CN1CCCC1c1c[nH]c(=O)c(C(F)(F)F)c1)N1CCN(c2ncc(Cl)cn2)CC1 (single isomer, unassigned) [Compound 74a]"
4,10 to 100,"O=C(CN1CCCC1c1c[nH]c(=O)c(C(F)(F)F)c1)N1CCN(c2ncc(C(F)(F)F)cn2)CC1 (single isomer, unassigned) [Compound 60a, 5-(1-(2-oxo-2-(4-(5-(trifluoromethyl)pyrimidin-2-yl)piperazin-1-yl)ethyl)pyrrolidin-2-yl)-3-(trifluoromethyl)pyridin-2(1H)-one]"
5,1000 to 10000,"COC1CC(c2cc(C(F)(F)F)c(=O)[nH]n2)N(CC(=O)N2CCN(c3ncc(C(F)(F)F)cn3)CC2)C1 (single isomer, unassigned) [Compound 138cis2, 6-(4-methoxy-1-(2-oxo-2-(4-(5-(trifluoromethyl)pyrimidin-2-yl)piperazin-1-yl)ethyl)pyrrolidin-2-yl)-4-(trifluoromethyl)pyridazin-3(2H)-one]"
6,1000 to 10000,"O=C(CN1Cc2ccccc2C1c1cc(C(F)(F)F)c(=O)[nH]n1)N1CC(Oc2ncc(C(F)(F)F)cn2)C1 (single isomer, unassigned) [Compound 114b]"
7,10 to 100,CC1(C)C[C@H](c2cc(C(F)(F)F)c(=O)[nH]n2)N(CC(=O)N2CCN(c3ncc(C(F)(F)F)cn3)CC2)C1 [Compound 94a]
8,1000 to 10000,"N#Cc1cnc(N2CCN(C(=O)CN3CCCC3c3c[nH]c(=O)c(C(F)(F)F)c3)CC2)nc1 (single isomer, unassigned) [Compound 76a]"
9,10 to 100,"CCc1cc(C2CCCN2CC(=O)N2CCN(c3ncc(C(F)(F)F)cn3)CC2)n[nH]c1=O (single isomer, unassigned) [Compound 40a]"
10,10 to 100,"CC(C)(C)c1cnc(N2CCN(C(=O)CN3CCCC3c3cc(C(F)(F)F)c(=O)[nH]n3)CC2)nc1 (single isomer, unassigned) [Compound 82a]"
11,10 to 100,"CC1(C)CC(c2cc(C(F)(F)F)c(=O)[nH]n2)CN(CCC(=O)N2CCN(c3ncc(C(F)(F)F)cn3)CC2)C1 (single isomer, unassigned) [Compound 87b]"
12,1000 to 10000,"O=C(CN1CCCC1c1cc(C(F)(F)F)c(=O)[nH]n1)N1CCN(c2nc3ccc(Cl)cc3o2)CC1 (single isomer, unassigned) [Compound 85b]"
13,100 to 1000,"N#Cc1cc(C2CCCN2CC(=O)N2CCN(c3ncc(C(F)(F)F)cn3)CC2)n[nH]c1=O (single isomer, unassigned) [Compound 98a, 3-oxo-6-(1-(2-oxo-2-(4-(5-(trifluoromethyl)pyrimidin-2-yl)piperazin-1-yl)ethyl)pyrrolidin-2-yl)-2,3-dihydropyridazine-4-carbonitrile]"
14,> 10000,"Cn1c(N2CCN(C(=O)CN3CCCC3c3cc(C(F)(F)F)c(=O)[nH]n3)CC2)nc2ccc(F)cc21 (single isomer, unassigned) [Compound 119b]"
15,1000 to 10000,"CNC(=O)c1ccc(N2CCN(C(=O)CCN3CCCC3c3c[nH]c(=O)c(C(F)(F)F)c3)CC2)cn1 (single isomer, unassigned) [Compound 73b]"
